Earlier results on one substance are cited in patent US6998112B2, “Sleep inducing toothpaste made with natural herbs and a natural hormone” (priority 2003, dated 2006).

For this data set the following is noted: in vivo.

With Melatonin, the adverse effects result is “isolated reports of exacerbation of depression and fatigue”.
